The source of these data is patent US20260224738A1, “MICELLE NANOPARTICLES COMPRISING BIOPOLYMER-HEMIN COMPLEX, AND USE THEREOF” (GWANGJU INSTITUTE OF SCIENCE AND TECHNOLOGY, priority 2023, published 2026).

Assay [1] deals with AKI mouse model established using glycerol. As to the kind of experiment: Histological analysis of kidneys of AKI mice (H&E, DHE, KIM-1, MAC387). It is filed as in vivo, ICR mice. As for the experimental part: (§1) All animal experiments were performed in accordance with the Gwangju Institute of Science and Technology Animal Care Committee guidelines (GIST-2021-095). Six-week-old ICR mice (30 g) were used, with free access to food and water. To establish an acute kidney injury (AKI) model, water was restricted for 18 hours. Next, 50% glycerol solution (8 mL/kg) was injected intramuscularly into both hind limbs of each mouse.
(§2) After establishing the AKI model, 10 mg/kg of hemin and biopolymer-hemin complex was injected intravenously. Twenty-four hours later, blood was collected for serum urea nitrogen (BUN) and creatinine analysis. Kidneys and other major organs (heart, liver, spleen, and lungs) were also collected for further histological analysis. 1-10. Histological analysis
The kidneys of each group were fixed with 4% formaldehyde, embedded in paraffin, and cut into 5 μm thick sections. H&E staining and TUNEL analysis of kidney sections were performed according to the manufacturer's protocol. For immunostaining of kidney injury molecule-1 (KIM-1) and MAC387, sections were treated with 100-fold diluted KIM-1 and MAC primary antibodies, and 200-fold diluted anti-rabbit IgG (Alexa Fluor 594) and anti-mouse IgG (Alexa Fluor 488) were each used as a secondary antibody. […] Images were analyzed quantitatively using ImageJ software. […]

The subject of the next assay is HK-2 cells. As to the kind of experiment: Cell viability against ROS (200 μM hydrogen peroxide), Alamar Blue. It is filed as cell-based, human. As to the method: HK-2 cells were treated with 200 μM hydrogen peroxide and various concentrations of the biopolymer-hemin complexes. After 24 hours of incubation, cell viability was evaluated using the Alamar Blue assay.
It was confirmed that the biopolymer-hemin complex removes ROS such as hydrogen peroxide and protects cells from oxidative stress (FIG. 4D). The ROS protective effect of the biopolymer-hemin complex was assayed in HK-2 cells with hydrogen peroxide. Various concentrations of hemin and biopolymer-hemin complexes with the same amount of hemin were added to cells treated with hydrogen peroxide (200 μM). The survival rate of cells was improved by increasing the concentration of the biopolymer-hemin complex or hemin.

In assay [2] the test system is AKI mouse model established using glycerol. As to the kind of experiment: Serum analysis (BUN, creatinine) of AKI mice. The class given is in vivo, ICR mice. The conditions noted are these: 10 mg/kg intravenous, 24 hours, compared to AKI mice. As for the experimental part:
as §1, §2

In the case of Hemin, the “kidney ROS levels (DHE staining)” value in assay [1] (AKI mice (FIG. 6D, 6F)) is reported as “not effective in reducing ROS levels”. Also, in assay [1] (AKI mice kidney), the “macrophage signal (MAC387 immunostaining)” value is given as “strong macrophage signals”. Besides, the “cytoprotective effect against hydrogen peroxide, overall” value in the assay with HK-2 cells (HK-2, 200 μM hydrogen peroxide) was “no significant difference observed between CS-H and hemin”. For the same substance, the “cell viability against hydrogen peroxide” value in the assay with HK-2 cells (hemin concentration 1 μM, 200 μM hydrogen peroxide) is listed as “no protective effect at all”. Also, in the assay with HK-2 cells (hemin concentration 5 and 25 μM, 200 μM hydrogen peroxide), the “protective effect against hydrogen peroxide” value was “improved protective effects”. For the same substance, in assay [2], the “serum BUN level” value was “did not induce significant changes” and the serum creatinine level entry was “did not induce significant changes”.
